Measured values as given in article PMC9793461 (ADMET & DMPK, 2022).
Converted amounts (≈) assume the structure as drawn.

Columns and labels:
[1] = Solubility of DEX in vegetable oils with cosolvents (shaker, HPLC); format: physicochemical; conditions: oil or lipid, thermodynamic from solid, 24 hours incubation
Procedure: After centrifugation, 200 μL of supernatant was diluted with 600 μL of tetrahydrofuran and 800 μL of acetonitrile in vials for the HPLC analysis. All samples were prepared in triplicates. Castor oil combined with 20 % (v/v) of isopropanol and castor oil with 20 % (v/v) of Capryol® 90 were chosen as the best formulations for the following experiments.
Samples from the solubility and partitioning studies were analysed on HPLC system Agilent 1100/1200 series connected to diode array detector adjusted to 241 nm. Kinetex C18 column (4.6 x 50 mm, particles 2.6 μm and pore size 100 Å) by Phenomenex (USA), heated to 40 °C, was used. The chromatograms were obtained with a gradient elution, where acetonitrile and buffer pH 2.0 were components of the mobile phase. Injector temperature was adjusted at 35 °C, the flow rate at 1.8 ml/min and sample injection volume at 10 μL. […] The two working standard solutions were obtained by further diluting the stock solution. […] The second standard solution was prepared by diluting 1 mL of stock solution in 100 mL acetonitrile. It was used for DEX assay in solutions composed of four other oils.

[2] = cited from earlier work
[3] = phosphate buffer pH 7.4 with 10 % (v/v) ethanol; cited from earlier work

solubility at 24 h ([1]; castor oil with 20 % (v/v) Capryol 90, 37 °C): ~1200 µg/mL (≈ 3.06 mM)
solubility at 24 h ([1]; castor oil with 20 % (v/v) isopropanol, 37 °C): ~2300 µg/mL (≈ 5.86 mM)
Structure (SMILES): C[C@@H]1C[C@H]2[C@@H]3CCC4=CC(=O)C=C[C@]4(C)[C@@]3(F)[C@@H](O)C[C@]2(C)[C@@]1(O)C(=O)CO [DEX, Dexamethasone]
solubility in ethanol [2]: sparingly soluble
solubility in water [2]: practically insoluble
solubility of DEX [3]: 0.17 mg/mL
